US5955497A, “Bioactive acetogenins” (Purdue Research Foundation, priority 1998, dated 1999)
In brackets after ≈: the same amount, converted by molar mass. Entries after “also recorded” stand apart in the source; their conditions may differ.

Assays:
in vivo = test: in vivo; design: species or system Artemia salina Leach (brine shrimp); details: brine shrimp larvae, read-out: BST LC30
Procedure: (§1) The cytotoxicities of squamotacin, molvizarin and bullatacin were evaluated, in the same run, against a panel of six cell lines (Table 1). Adriamycin was included as a standard. The relative cytotoxicity of the compounds to non-tumor cells was determined based on the brine shrimp lethality assay (BSA). The panel of tumor cell lines tested includes human lung carcinoma (A-549), human breast carcinoma (MCF-7), human colon adenocarcinoma (HT-29), human renal carcinoma (A-498), human prostate adenocarcinoma (PC-3) and human pancreatic carcinoma (PACA-2).
(§2) The brine shrimp (Artemia salina Leach) test (BST) was performed as modified to determine LC50 values in μg/ml. Zhao et al., Phytochemistry, 33, p. 1065 (1993). Seven-day in vitro cytotoxicity tests against human tumor cell lines were carried out at the Purdue Cancer Center, using standard protocols for A-549 (human lung carcinoma), MCF-7 (human breast carcinoma) and HT-29 (human colon carcinoma), human renal carcinoma (A-498), human prostate adenocarcinoma (PC-3) and human pancreatic carcinoma (PACA-2) with adriamycin as a positive control. The reported ED50 values in μg/ml (Table 1) were tabulated from the same run, except where noted, in order to facilitate comparison for the SAR's.

[1] = test system: PC-3 (human prostate adenocarcinoma); test: seven-day in vitro cytotoxicity, PC-3; type: cell-based; details: for activity relative to the positive control adriamycin: PC-3, versus adriamycin; for selectivity for the prostate cell line (PC-3): PC-3, versus other cell lines of Table 1
Procedure: as §1, §2

[2] = test system: panel of six cell lines (A-549, MCF-7, HT-29, A-498, PC-3, PACA-2); test: cytotoxicity against the panel of six human tumor cell lines; type: cell-based; details: for spectra of cytotoxic selectivities, squamotacin versus molvizarin: Table 1
Procedure: as §1, §2

[3] = test system: A2780 human ovarian cancer xenografts; details: 50 μg/kg, athymic mice bearing A2780 human ovarian cancer xenografts; cited from earlier work

CCCCCCCCCCCC[C@H](O)[C@H]1CC[C@H]([C@H]2CC[C@H]([C@H](O)CCCCCCCC[C@@H](O)CC3=C[C@H](C)OC3=O)O2)O1 [Compound 1, squamotacin]
LC50 (in vivo): 6.8 ng/mL (≈ 0.0109 µM) | activity relative to the positive control adriamycin [1]: over 100 million | selectivity for the prostate cell line (PC-3) [1]: high selectively for the prostate cell line (PC-3); also recorded: high selectivity | spectra of cytotoxic selectivities, squamotacin versus molvizarin [2]: quite similar | activity relative to bullatacin in the cell panel ([2]; six cell lines, versus bullatacin): less activity than bullatacin in five of the six cell lines tested, with HT-29 (colon) being the exception

CCCCCCCCCC[C@H](O)[C@H]1CC[C@H]([C@H]2CC[C@H]([C@H](O)CCCCCCCC[C@@H](O)CC3=C[C@H](C)OC3=O)O2)O1 [Compound 2, molvizarin]
activity relative to the positive control adriamycin [1]: over 100 million | selectivity for the prostate cell line (PC-3) [1]: high selectively for the prostate cell line (PC-3); also recorded: showed selectivity for PC-3; also recorded: high selectivity | spectra of cytotoxic selectivities, squamotacin versus molvizarin [2]: quite similar

CCCCCCCCCC[C@H](O)[C@H]1CC[C@H]([C@H]2CC[C@H]([C@H](O)CCCCCCCCCC[C@@H](O)CC3=C[C@H](C)OC3=O)O2)O1 [Compound 3, bullatacin]
tumor growth inhibition (TGI) [3]: 67%
